Measurements published in paper PMC6016738 (European journal of medicinal chemistry, 2018).

What was measured:
E. coli DNA gyrase = E. coli DNA gyrase (Escherichia coli, UniProt P0AES6); test: E. coli DNA gyrase supercoiling assay
E. faecalis ATCC 29212 = test: Antibacterial activity; type: cell-based, Enterococcus faecalis; conditions: for inhibition at 50 µM: Enterococcus faecalis, ATCC29212, read-out: growth inhibition of E. faecalis
E. coli topoisomerase IV = E. coli topoisomerase IV (Escherichia coli, UniProt P20083); test: E. coli topoisomerase IV inhibition assay; conditions: for IC50: IC50 E. coli topo IV; for remaining activity at 1 µM: read-out: RA (residual activity) E. coli topo IV
S. aureus ATCC 25923 = test: Antibacterial activity; type: cell-based; conditions: Staphylococcus aureus, ATCC25923, read-out: growth inhibition of S. aureus
E. coli JW5503 ΔtolC = test: Antibacterial activity; type: cell-based, Escherichia coli; conditions: inhibitor concentration 50 μM
[1] = Growth inhibition of the bacterial panel at 50 μM; type: cell-based; conditions: read-out: growth inhibition of bacteria (all tested strains, Table 1S)
E. coli (ATCC 25922) = test: MIC broth micro-dilution; type: cell-based, Escherichia coli
E. coli (MG1655) = test: MIC broth micro-dilution; type: cell-based, Escherichia coli
E. coli (BW 25113) = test: MIC broth micro-dilution; type: cell-based, Escherichia coli
HepG2 cells = conditions: read-out: IC50 HepG2; literature value; cited from earlier work
HUVEC cells = conditions: read-out: IC50 HUVEC; literature value; cited from earlier work

Chain of E. coli topoisomerase IV (P20083 whole entry): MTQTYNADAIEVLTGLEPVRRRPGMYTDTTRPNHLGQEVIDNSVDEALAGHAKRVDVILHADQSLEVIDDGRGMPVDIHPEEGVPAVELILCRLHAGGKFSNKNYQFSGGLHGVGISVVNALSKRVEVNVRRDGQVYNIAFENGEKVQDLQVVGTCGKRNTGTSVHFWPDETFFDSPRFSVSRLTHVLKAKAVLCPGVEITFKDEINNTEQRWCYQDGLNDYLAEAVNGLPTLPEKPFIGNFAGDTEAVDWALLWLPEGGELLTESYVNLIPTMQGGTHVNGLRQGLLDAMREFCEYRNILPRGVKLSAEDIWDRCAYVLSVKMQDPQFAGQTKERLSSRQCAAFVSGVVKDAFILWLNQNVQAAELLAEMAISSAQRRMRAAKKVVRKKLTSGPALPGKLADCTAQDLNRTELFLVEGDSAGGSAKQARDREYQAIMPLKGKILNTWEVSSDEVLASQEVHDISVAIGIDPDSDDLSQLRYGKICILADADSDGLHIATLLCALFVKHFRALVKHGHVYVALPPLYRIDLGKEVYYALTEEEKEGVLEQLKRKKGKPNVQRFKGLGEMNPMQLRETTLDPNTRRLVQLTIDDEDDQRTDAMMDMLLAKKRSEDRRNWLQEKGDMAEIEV
Chain of E. coli topoisomerase IV (P0AFI2 whole entry partner): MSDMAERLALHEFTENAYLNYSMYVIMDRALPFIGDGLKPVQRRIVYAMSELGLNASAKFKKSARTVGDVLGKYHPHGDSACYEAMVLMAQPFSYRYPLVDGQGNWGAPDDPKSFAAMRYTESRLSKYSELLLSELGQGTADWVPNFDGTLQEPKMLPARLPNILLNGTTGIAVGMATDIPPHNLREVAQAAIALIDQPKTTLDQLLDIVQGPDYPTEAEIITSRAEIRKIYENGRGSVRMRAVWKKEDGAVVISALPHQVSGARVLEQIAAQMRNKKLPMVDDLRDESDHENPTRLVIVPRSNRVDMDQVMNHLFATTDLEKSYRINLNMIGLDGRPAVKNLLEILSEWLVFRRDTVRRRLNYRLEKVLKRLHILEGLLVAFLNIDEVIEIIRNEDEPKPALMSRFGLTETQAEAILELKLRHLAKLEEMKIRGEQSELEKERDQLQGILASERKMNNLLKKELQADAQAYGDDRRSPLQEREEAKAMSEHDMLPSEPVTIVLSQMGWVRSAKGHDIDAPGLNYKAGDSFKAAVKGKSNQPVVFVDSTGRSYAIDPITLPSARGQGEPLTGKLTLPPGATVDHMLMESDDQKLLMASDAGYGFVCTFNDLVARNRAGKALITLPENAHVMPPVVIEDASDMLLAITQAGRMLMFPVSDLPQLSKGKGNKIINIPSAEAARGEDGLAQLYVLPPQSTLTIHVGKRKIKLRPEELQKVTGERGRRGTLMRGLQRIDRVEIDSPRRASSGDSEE

Molecule: 4,5-Dibromo-N-(2-isopropoxy-4-((pyridin-2-ylmethyl)carbamoyl)phenyl)-1H-pyrrole-2-carboxamide [Compound 15a]
- RA (residual activity) E. coli gyrase (E. coli DNA gyrase; residual activity of the enzyme at 1 μM of the compound): 100%

Molecule: CC(C)Oc1cc(C(=O)N[C@H](C(=O)O)C(C)C)ccc1NC(=O)c1cc(Br)c(Br)[nH]1 [Compound 8a, (4-(4,5-Dibromo-1H-pyrrole-2-carboxamido)-3-isopropoxybenzoyl)-L-valine]
- inhibition at 50 µM (E. faecalis ATCC 29212): > 80%

Molecule: Cc1[nH]c(C(=O)Nc2ccc(C(=O)N[C@@H](Cc3ccccc3)C(=O)O)cc2OC(C)C)c(Cl)c1Cl [Compound 8d]
- inhibition at 50 µM (E. faecalis ATCC 29212): > 80%

Molecule: Cc1[nH]c(C(=O)Nc2ccc(C(=O)N[C@@H](C)C(=O)O)cc2OC(C)C)c(Cl)c1Cl [Compound 8e]
- inhibition at 50 µM (E. faecalis ATCC 29212): > 80%
- IC50 (E. coli topoisomerase IV): < 1 µM

Molecule: Cc1[nH]c(C(=O)Nc2ccc(C(=O)N[C@H](C)C(=O)O)cc2OC(C)C)c(Cl)c1Cl [Compound 8f]
- inhibition at 50 µM (E. faecalis ATCC 29212): > 80%

Molecule: Cc1[nH]c(C(=O)Nc2ccc(C(=O)N[C@@H](C)C(=O)O)cc2OCCNC(=O)OC(C)(C)C)c(Cl)c1Cl [Compound 8i]
- remaining activity at 1 µM (E. coli topoisomerase IV): 100%

Molecule: COC(=O)[C@H](Cc1ccccc1)NC(=O)c1ccc(NC(=O)c2cc(Br)c(Br)[nH]2)c(OCCN)c1 [Compound 9a, (S)-2-(2-(4,5-Dibromo-1H-pyrrole-2-carboxamido)-5-((1-methoxy-1-oxo-3-phenylpropan-2-yl)carbamoyl)phenoxy)ethan-1-aminium chloride]
- inhibition at 50 µM (S. aureus ATCC 25923): > 80%
- inhibition at 50 µM (E. faecalis ATCC 29212): > 80%

Molecule: COC(=O)[C@H](C)NC(=O)c1ccc(NC(=O)c2[nH]c(C)c(Cl)c2Cl)c(OCCN)c1.Cl [Compound 9b]
- inhibition at 50 µM (S. aureus ATCC 25923): > 80%
- inhibition at 50 µM (E. faecalis ATCC 29212): > 80%
- growth inhibition of E. coli JW5503 ΔtolC (E. coli JW5503 ΔtolC): completely suppressed

Molecule: NCCOc1cc(C(=O)NCC(=O)O)ccc1NC(=O)c1cc(Br)c(Br)[nH]1 [Compound 9c]
- inhibition at 50 µM [1]: < 36%

Molecule: NCCOc1cc(C(=O)N[C@@H](Cc2ccccc2)C(=O)O)ccc1NC(=O)c1cc(Br)c(Br)[nH]1 [Compound 9d]
- inhibition at 50 µM [1]: < 36%

Molecule: Cc1[nH]c(C(=O)Nc2ccc(C(=O)N[C@@H](C)C(=O)O)cc2OCCN)c(Cl)c1Cl [Compound 9e]
- inhibition at 50 µM [1]: < 36%
- IC50 (E. coli topoisomerase IV): < 1 µM

Molecule: Cc1[nH]c(C(=O)Nc2ccc(C(=O)N[C@@H](C)C(=O)NN)cc2OC(C)C)c(Cl)c1Cl [Compound 10a, (S)-3,4-Dichloro-N-(4-((1-hydrazineyl-1-oxopropan-2-yl)carbamoyl)-2-isopropoxyphenyl)-5-methyl-1H-pyrrole-2-carboxamide]
- inhibition at 50 µM (E. faecalis ATCC 29212): > 80%
- remaining activity at 1 µM (E. coli topoisomerase IV): 100%

Molecule: Cc1[nH]c(C(=O)Nc2ccc(C(=O)N[C@@H](C)c3n[nH]c(=O)o3)cc2OC(C)C)c(Cl)c1Cl [Compound 11a, (S)-3,4-Dichloro-N-(2-isopropoxy-4-((1-(5-oxo-4,5-dihydro-1,3,4-oxadiazol-2-yl)ethyl)carbamoyl)phenyl)-5-methyl-1H-pyrrole-2-carboxamide]
- inhibition at 50 µM (S. aureus ATCC 25923): > 80%
- inhibition at 50 µM (E. faecalis ATCC 29212): > 80%
- MIC (E. coli (ATCC 25922); Escherichia coli, ATCC25922, read-out: MIC E. coli (ATCC 25922)): > 50 µM
- MIC E. coli (ATCC 25922) (E. coli (ATCC 25922); without PAβN): no bioactivity
- MIC (E. coli (MG1655); Escherichia coli, MG1655, read-out: MIC E. coli (MG1655)): > 50 µM
- MIC E. coli (MG1655) (E. coli (MG1655); without PAβN): no bioactivity
- MIC (E. coli (BW 25113); Escherichia coli, read-out: MIC E. coli (BW 25113)): > 50 µM
- MIC E. coli (BW 25113) (E. coli (BW 25113); without PAβN): no bioactivity

Molecule: Cc1[nH]c(C(=O)Nc2ccc(C(=O)N[C@@H](C)c3n[nH]c(=O)o3)cc2OCCNC(=O)OC(C)(C)C)c(Cl)c1Cl [Compound 11b]
- inhibition at 50 µM (E. faecalis ATCC 29212): > 80%

Molecule: Cc1[nH]c(C(=O)Nc2ccc(C(=O)N[C@@H](C)c3n[nH]c(=O)o3)cc2OCCN)c(Cl)c1Cl [Compound 12, (S)-2-(2-(3,4-Dichloro-5-methyl-1H-pyrrole-2-carboxamido)-5-((1-(5-oxo-4,5-dihydro-1,3,4-oxadiazol-2-yl)ethyl)carbamoyl)phenoxy)ethan-1-aminium chloride]
- growth inhibition of E. faecalis (E. faecalis ATCC 29212; inhibitor concentration 50 μM): no growth inhibition
- IC50 (E. coli topoisomerase IV): < 1 µM

Molecule: O=C(O)CNC(=O)c1ccc(NC(=O)c2cc(Br)c(Br)[nH]2)cc1OCc1ccccc1 [Compound 23a, (2-(Benzyloxy)-4-(4,5-dibromo-1H-pyrrole-2-carboxamido)benzoyl)glycine]
- fold more active on E. coli gyrase than isopropoxy analogue 23c (E. coli DNA gyrase; ratio of IC50 values): 4 fold
- IC50 (E. coli topoisomerase IV): 42 ± 11 µM

Molecule: CC(C)Oc1cc(NC(=O)c2cc(Br)c(Br)[nH]2)ccc1C(=O)NCC(=O)O [Compound 23c]
- remaining activity at 1 µM (E. coli topoisomerase IV): 100%

Molecule: Cc1[nH]c(C(=O)Nc2ccc(C(=O)NCC(=O)O)c(OC(C)C)c2)c(Cl)c1Cl [Compound 23d]
- remaining activity at 1 µM (E. coli topoisomerase IV): 100%

Molecule: COc1cc([C@@H]2c3cc4c(cc3[C@@H](O[C@@H]3O[C@@H]5CO[C@@H](C)O[C@H]5[C@H](O)[C@H]3O)[C@H]3COC(=O)[C@H]23)OCO4)cc(OC)c1O [Etoposide]
- IC50 (HepG2 cells): 30.2 µM
- IC50 (HUVEC cells): 1.25 µM
